Like-named read-outs stand apart in the source and are kept apart here.
Legend:
[1] = tested on: HCV replicon (Replicon 1a); assay: anti-HCV activity in Huh-7 cell line harboring a HCV replicon (Replicon 1a); format: cell-based; conditions: Hepatitis C virus, Huh-7, 72 h
cyclophilin A = cyclophilin A (Homo sapiens, UniProt P62937); assay: Cyclophilin A TR-FRET competitive binding assay; conditions: IC50 ranges, competition with CsA-Cy5 for His-tagged CypA, two-hour incubation
Procedure: Cyclophilin A TR-FRET Competitive Binding Assay
Inhibitor potency was measured using a competitive binding assay with a time-resolved fluorescence resonance energy transfer (TR-FRET) readout. […] An IC50 value was calculated using a four-parameter logistic fit.

[2] = read-out: Replicon 1a % inhibition at 1 μM
[3] = read-out: Replicon 1a % inhibition at 1 μM, 1 μM, human hepatoma Huh-7 HCV replicon cells, 3 days, luciferase readout

Chain of cyclophilin A (P62937 whole entry, species assumed): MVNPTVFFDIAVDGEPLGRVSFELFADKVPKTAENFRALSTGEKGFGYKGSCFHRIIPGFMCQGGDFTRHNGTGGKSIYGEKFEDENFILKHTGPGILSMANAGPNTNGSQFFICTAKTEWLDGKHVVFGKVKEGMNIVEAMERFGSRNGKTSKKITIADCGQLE

Structure (SMILES)	inhibition at 1 µM [1, 2] [%]	IC50 (cyclophilin A; read-out: TR-FRET) [nM]	inhibition at 1 µM [1, 3] [%]	IC50 (cyclophilin A; TR-FRET) [nM]
CC(C)[C@@H]1NC(=O)C(C)(C)/C=C/c2ccc3ccc(nc3c2)[C@@H](C(F)(F)F)NC(=O)[C@@H]2CCCN(N2)C(=O)[C@H](C)NC1=O [Compound 13]	87	< 100		
CC(C)[C@@H]1NC(=O)C/C=C/c2ccc3ncc(cc3c2)[C@@H](C)OC(=O)[C@@H]2CCCN(N2)C(=O)[C@H](C)NC1=O [Compound 14]		< 100	94	
CC(C)[C@@H]1NC(=O)C/C=C/c2cnc3ccc(cc3c2)[C@@H](C)OC(=O)[C@@H]2CCCN(N2)C(=O)[C@H](C)NC1=O [Compound 15]		< 100	99	
CC(C)[C@@H]1NC(=O)C/C=C/c2ccc3ccc(cc3n2)[C@@H](C)OC(=O)[C@@H]2CCCN(N2)C(=O)[C@H](C)NC1=O [Compound 16]		101 to 1000	94	
CC(C)[C@@H]1NC(=O)C(C)(C)/C=C/c2ccc3cnc(cc3c2)[C@@H](C)OC(=O)[C@@H]2CCCN(N2)C(=O)[C@H](C)NC1=O [Compound 17]		< 100	100	
CC(C)[C@@H]1NC(=O)C(C)(C)CCc2ccc3cnc(cc3c2)[C@@H](C)OC(=O)[C@@H]2CCCN(N2)C(=O)[C@H](C)NC1=O [Compound 18]		< 100	94	
CC[C@@H]1/C=C/c2cc3cc(ccc3cn2)[C@@H](C)OC(=O)[C@@H]2CCCN(N2)C(=O)[C@H](C)NC(=O)[C@H](C(C)C)NC1=O [Compound 19]		< 100	97	
CC1/C=C/c2cc3cc(ccc3cn2)[C@@H](C)OC(=O)[C@@H]2CCCN(N2)C(=O)[C@H](C)NC(=O)[C@H](C(C)C)NC1=O (some centres unmarked) [Compound 20]		< 100	99	
CC(C)[C@@H]1NC(=O)[C@H](C)C/C=C/c2cc3cc(ccc3cn2)[C@@H](C)OC(=O)[C@@H]2CCCN(N2)C(=O)[C@H](C)NC1=O [Compound 21]		< 100	93	
CC(C)[C@@H]1NC(=O)C/C=C/c2cc3cc(ccc3cn2)[C@@H](C(F)(F)F)NC(=O)[C@@H]2CCCN(N2)C(=O)[C@H](C)NC1=O [Compound 23]		< 100	99	
CO[C@@H]1CC/C=C/c2ccc3c(c2)[C@@H](CC3)N(C)C(=O)[C@@H]2CCCN(N2)C(=O)[C@H](C)NC(=O)[C@H](C(C)C)NC(=O)[C@@H]1C [Compound 25]	71			101 to 1000
CC(C)[C@@H]1NC(=O)[C@H](C)/C=C/c2ccc3ccc(nc3c2)[C@@H](C)OC(=O)[C@@H]2CCCN(N2)C(=O)[C@H](C)NC1=O [Compound 26]	99			< 100
CC(C)[C@@H]1NC(=O)[C@@H](C)/C=C/c2ccc3ccc(nc3c2)[C@@H](C)OC(=O)[C@@H]2CCCN(N2)C(=O)[C@H](C)NC1=O [Compound 27]	100			< 100
CO[C@@H]1CC/C=C/c2cccc(c2)C2CCCCN2C(=O)[C@@H]2CCCN(N2)C(=O)[C@H](C)NC(=O)[C@H](C(C)C)NC(=O)[C@@H]1C (some centres unmarked) [Compound 28]		101 to 1000	56	
CC(C)[C@@H]1NC(=O)C/C=C/c2ccc3nnc(cc3c2)[C@@H](C)OC(=O)[C@@H]2CCCN(N2)C(=O)[C@H](C)NC1=O [Compound 32]		< 100	71	
CO[C@@H]1/C=C/c2cc3cc(ccc3cn2)[C@@H](C)OC(=O)[C@@]2(C)CCCN(N2)C(=O)[C@H](C)NC(=O)C(C(C)C)NC(=O)[C@@H]1C (some centres unmarked) [Compound 33]		1000 to 10000	14	
CC(C)[C@@H]1NC(=O)[C@H](C)C/C=C/COc2ccc(F)c(c2)[C@@H](C)OC(=O)C2CCCN(N2)C(=O)[C@H](C)NC1=O (some centres unmarked) [Compound 35]	94			< 100
CC(C)[C@@H]1NC(=O)[C@H](C)CCCCOc2ccc(F)c(c2)[C@@H](C)OC(=O)[C@@H]2CCCN(N2)C(=O)[C@H](C)NC1=O [Compound 36]		< 100	73	
CO[C@@H]1/C=C/COc2cccc(c2)[C@@H](C(C)C)NC(=O)[C@@H]2CCCN(N2)C(=O)[C@H](C)NC(=O)[C@H](C(C)C)NC(=O)[C@@H]1C [Compound 37, (E)-(2R,5S,11 S,14S,17R,18R)-2,14-Diisopropyl-18-methoxy-11,17-dimethyl-22-oxa-3,9,12,15,28-pentaaza-tricyclo[21.3.1.1*5,9*]octacosa-1 (27),19,23,25-tetraene-4,10,13,16-tetraone]	76			< 100
CC(C)[C@@H]1NC(=O)COc2ccc(cc2)-c2cccc(c2)[C@@H](C)OC(=O)[C@@H]2CCCN(N2)C(=O)[C@H](C)NC1=O [Compound 38]		< 100	98	
CC(C)[C@@H]1NC(=O)[C@H](C)Oc2ccc(cc2)-c2cccc(c2)[C@@H](C)OC(=O)[C@@H]2CCCN(N2)C(=O)[C@H](C)NC1=O [Compound 39]		< 100	98	
CC(C)[C@@H]1NC(=O)[C@@H](C)Oc2ccc(cc2)-c2cccc(c2)[C@@H](C)OC(=O)[C@@H]2CCCN(N2)C(=O)[C@H](C)NC1=O [Compound 40]		< 100	96	

Structure (SMILES)	inhibition at 1 µM [1, 2] [%]	IC50 (cyclophilin A; read-out: TR-FRET) [nM]	inhibition at 1 µM [1, 3] [%]	IC50 (cyclophilin A; TR-FRET) [nM]
CC(C)[C@@H]1NC(=O)COc2ccc(cc2)-c2cccc(n2)[C@@H](C)OC(=O)[C@@H]2CCCN(N2)C(=O)[C@H](C)NC1=O [Compound 41]		< 100	96	
CC(C)[C@@H]1NC(=O)CCn2cc(cn2)-c2cccc(c2)[C@@H](C)OC(=O)[C@@H]2CCCN(N2)C(=O)[C@H](C)NC1=O [Compound 42]		101 to 1000	16	
CC(C)[C@@H]1NC(=O)CCc2ccc(cc2)-c2cccc(c2)[C@@H](C)OC(=O)[C@@H]2CCCN(N2)C(=O)[C@H](C)NC1=O [Compound 43]		< 100	97	
CC(C)[C@@H]1NC(=O)CCc2ccc(cn2)-c2cccc(c2)[C@@H](C)OC(=O)[C@@H]2CCCN(N2)C(=O)[C@H](C)NC1=O [Compound 44]		< 100	78	
CC(C)[C@@H]1NC(=O)CCc2ccc(nc2)-c2cccc(c2)[C@@H](C)OC(=O)[C@@H]2CCCN(N2)C(=O)[C@H](C)NC1=O [Compound 45]		< 100	80	
CC(C)[C@@H]1NC(=O)[C@H](C)CCCc2cc3cc(ccc3cn2)[C@@H](C)OC(=O)[C@@H]2CCCN(N2)C(=O)[C@H](C)NC1=O [Compound 46]		< 100	90	
C[C@@H]1NC(=O)[C@H](CO)NC(=O)C/C=C/c2cc3cc(ccc3cn2)[C@@H](C)OC(=O)[C@@H]2CCCN(N2)C1=O [Compound 47]		101 to 1000	9	
C[C@@H]1NC(=O)[C@H]([C@@H](C)O)NC(=O)C/C=C/c2cc3cc(ccc3cn2)[C@@H](C)OC(=O)[C@@H]2CCCN(N2)C1=O [Compound 48]		< 100	40	
C[C@@H]1NC(=O)[C@H](CCn2ccnn2)NC(=O)C(C)(C)/C=C/c2cc3cc(ccc3cn2)[C@@H](C)OC(=O)[C@@H]2CCCN(N2)C1=O [Compound 50]	12	101 to 1000		
C=CC[C@@H]1NC(=O)C(C)(C)/C=C/c2cc3cc(ccc3cn2)[C@@H](C)OC(=O)[C@@H]2CCCN(N2)C(=O)[C@H](C)NC1=O [Compound 52]		< 100	98	
C[C@@H]1NC(=O)[C@H](C2CCCCC2)NC(=O)C/C=C/c2cc3cc(ccc3cn2)[C@@H](C)OC(=O)[C@@H]2CCCN(N2)C1=O [Compound 53]		101 to 1000	89	
C[C@@H]1NC(=O)[C@H](Cc2ccccc2)NC(=O)C/C=C/c2cc3cc(ccc3cn2)[C@@H](C)OC(=O)[C@@H]2CCCN(N2)C1=O [Compound 54]		< 100	98	
C[C@@H]1NC(=O)[C@H](Cc2cccnc2)NC(=O)C(C)(C)/C=C/c2cc3cc(ccc3cn2)[C@@H](C)OC(=O)[C@@H]2CCCN(N2)C1=O [Compound 55]		101 to 1000	76	
C[C@@H]1NC(=O)[C@H](CCc2ccccc2)NC(=O)C/C=C/c2cc3cc(ccc3cn2)[C@@H](C)OC(=O)[C@@H]2CCCN(N2)C1=O [Compound 56]		101 to 1000	47	
CC(C)[C@@H]1NC(=O)C2(CCOCC2)CCc2cc3cc(ccc3cn2)[C@@H](C)OC(=O)[C@@H]2CCCN(N2)C(=O)[C@H](C)NC1=O [Compound 60]		101 to 1000	65	
CC(C)[C@@H]1NC(=O)CCCCCc2cc3cc(ccc3cn2)[C@@H](C)OC(=O)[C@@H]2CCCN(N2)C(=O)[C@H](C)NC1=O [Compound 62]		101 to 1000	25	
CC(C)[C@@H]1NC(=O)CCCCCCc2cc3cc(ccc3cn2)[C@@H](C)OC(=O)[C@@H]2CCCN(N2)C(=O)[C@H](C)NC1=O [Compound 64]		101 to 1000	35	
CC(C)[C@@H]1NC(=O)Cc2cccc(c2)-c2cc3cc(ccc3cn2)[C@@H](C)OC(=O)[C@@H]2CCCN(N2)C(=O)[C@H](C)NC1=O [Compound 65]		< 100	92	
CC(C)[C@@H]1NC(=O)C(C)(C)c2cccc(c2)-c2cc3cc(ccc3cn2)[C@@H](C)OC(=O)C2CCCN(N2)C(=O)[C@H](C)NC1=O (some centres unmarked) [Compound 67]		< 100	97	
CC(C)[C@@H]1NC(=O)C(C)(C)COc2cc3cc(ccc3cn2)[C@@H](C)OC(=O)[C@H]2CCCN(N2)C(=O)[C@H](C)NC1=O [Compound 69]		1000 to 10000	19	
C[C@@H]1NC(=O)[C@H](CCn2cc(CO)nn2)NC(=O)C(C)(C)/C=C/c2cc3cc(ccc3cn2)[C@@H](C)OC(=O)[C@@H]2CCCN(N2)C1=O [Compound 72]	0	101 to 1000		

Source: patent US9512175B2, “Macrocyclic inhibitors of flaviviridae viruses” (Gilead Sciences, Inc., priority 2012, dated 2016)
